According to patent publication US6747061B2, “N-substituted dithiocarbamates for the treatment of biological disorders” (AtheroGenics, Inc., priority 2000, dated 2004):

Test system: cytokine induced oxidatively modified proteins in NHBE cells
Experiment: OxyBlot oxidized protein analysis
Type: cell-based, human
Conditions: TNF + IL-4, FIG. 4
Description: The OxyBlot™ assay (Intergen) detects oxidative modification of proteins by reactive oxygen species such as hydroxynonenal. As a consequence of the modification, carbonyl groups are introduced into protein side chains by a site-specific mechanism. OxyBlot™ detects these carbonyl groups, which is a hallmark of the oxidation status of proteins.
Normal human bronchial epithelial cells (NHBE) were purchased from Clonetics. They were cultured in BEGM (Clonetics) media without retinoic acid. In a typical experiment, the cells were seeded in 24-well plates. Media was changed to BEGM without retinoic acid (RA) and hydrocortisone (HC) 24 hr before dosing. Cells were then exposed to compounds in fresh BEGM without RA and HC for 20 min at 37° C., subsequently stimulated with TNF (10 ng/ml) and IL-4 (20 ng/ml) purchased from Boehringer Mannheim for another 20 min at 37° C. All compounds were dissolved in DMSO and the final concentration of DMSO was 0.2%.
Cells were washed 3 times with cold PBS, and lysed in 100 μl/well 1×RIPA buffer (25 mM Tris pH7.6, 150 mM NaCl, 2 mM EDTA, 1% IGEPAC, 0.5% deoxycholate, 0.1% SDS), 50 mM DTT, 1 mM PMSF, […] leupeptin, 1 μl/ml aprotinin. The cell lysates were clarified by centrifugation. 5 μl of the lysates were mixed with 5 μl 12% SDS (OxyBlot™ kit) and 10 μl of 1×2,4-Dintirophenylhydrazin (DNPH) (OxyBlot™ kit). […]

Structure (SMILES): S=C(S)N1CCCC1 [PTDC, pyrrolidine dithiocarbamate, reference compound]
- inhibition of cytokine induced oxidatively modified proteins: inhibit
